Data on 28 molecules can be found in ChEMBL document CHEMBL1240450, “Design, synthesis and biological evaluation of novel quinazoline derivatives as potential antitumor agents: molecular docking study” (Eur J Med Chem, 2010).

≈ marks a conversion by molar mass, not a printed value.

In one assay the test system is MCF7. The assay is described as follows: Antitumor activity against human MCF7 cells after 48 hrs by Sulphorhodamine-B assay. Particulars: MCF7, 48 h.
The subject of another assay is HeLa. The assay is described as follows: Antitumor activity against human HeLa cells after 48 hrs by Sulphorhodamine-B assay.
In a further assay the test system is HepG2. The assay is described as follows: Antitumor activity against human HepG2 cells after 48 hrs by Sulphorhodamine-B assay. Particulars: HepG2, 48 h. On the technique in general: In SRB staining, fixed cells bind dye roughly in proportion to their protein.

Usually IC50 stands for the concentration needed to halve the response being measured. Read a low IC50 as higher potency.

For the molecule `Cc1ccc(-c2nc3ccc(Cl)cc3c(=S)n2N)cc1`, the results for the IC50 in the assay with MCF7, in the assay on HeLa and with HepG2 were 9.25 µg/mL (≈ 30.6 µM), 14 µg/mL (≈ 46.4 µM) and 17 µg/mL (≈ 56.3 µM), respectively.
On to `Cc1ccc(C(=O)Nc2ccc(Cl)cc2C(=O)O)cc1`, for which the IC50 was found to be 14.7 µg/mL (≈ 50.7 µM) in the assay with MCF7, 18.9 µg/mL (≈ 65.2 µM) in the assay on HeLa and 15.9 µg/mL (≈ 55.1 µM) in the assay on HepG2.
Taken in the same sequence, the figures for `Cc1ccc(-c2nc(S(=O)(=O)Cc3ccccc3)c3cc(Cl)ccc3n2)cc1` were 3.96 µg/mL (≈ 9.68 µM), 7.01 µg/mL (≈ 17.1 µM) and 7.21 µg/mL (≈ 17.6 µM).
Taken in the same sequence, the figures for `Cc1ccc(-c2nc(SCC(N)=O)c3cc(Cl)ccc3n2)cc1` were 5.59 µg/mL (≈ 16.3 µM), 4.98 µg/mL (≈ 14.5 µM) and 9.45 µg/mL (≈ 27.5 µM).
For `Cc1ccc(-c2nc(SCC#N)c3cc(Cl)ccc3n2)cc1` the same measures were 3.35 µg/mL (≈ 10.3 µM), 3.76 µg/mL (≈ 11.5 µM) and 4.37 µg/mL (≈ 13.4 µM).
Regarding `COc1cccc2c1C(=O)c1c(O)c3c(c(O)c1C2=O)C[C@@](O)(C(=O)CO)C[C@@H]3O[C@H]1C[C@H](N)[C@H](O)[C@H](C)O1` [DOXORUBICIN], the figures for the concentration for half-maximal inhibition (IC50) with MCF7, with HeLa and with HepG2 were 3.76 µg/mL (≈ 6.92 µM), 3.64 µg/mL (≈ 6.7 µM) and 4.57 µg/mL (≈ 8.41 µM), respectively.
With `CCOc1ccc(NC(=O)CSc2nc(-c3ccc(C)cc3)nc3ccc(Cl)cc23)cc1`, the IC50 in the assay with MCF7 came to 15.8 µg/mL (≈ 34.1 µM); in the assay on HeLa, 10.1 µg/mL (≈ 21.8 µM); with HepG2 it was 5.99 µg/mL (≈ 12.9 µM).
Taken in the same sequence, the figures for `Cc1ccc(-c2nc3ccc(Cl)cc3c(=O)n2C)cc1` were 3.35 µg/mL (≈ 11.8 µM), 4.37 µg/mL (≈ 15.3 µM) and 4.17 µg/mL (≈ 14.6 µM).
For the molecule `Cc1ccc(C(=O)Nc2ccc(Cl)cc2C(=S)NN)cc1`, the IC50 in the assay on MCF7 was determined as 3.35 µg/mL (≈ 10.5 µM); in the assay on HeLa it was 4.98 µg/mL (≈ 15.6 µM); in the assay on HepG2, 5.59 µg/mL (≈ 17.5 µM).
For `Cc1ccc(-c2nc(NN)c3cc(Cl)ccc3n2)cc1` the same measures were 3.76 µg/mL (≈ 13.2 µM), 3.98 µg/mL (≈ 14 µM) and 4.17 µg/mL (≈ 14.6 µM).
For `Cc1ccc(-c2nc(SCCO)c3cc(Cl)ccc3n2)cc1` the same measures were 3.76 µg/mL (≈ 11.4 µM), 9.25 µg/mL (≈ 28 µM) and 9.04 µg/mL (≈ 27.3 µM).
For `Cc1ccc(-c2nc3ccc(Cl)cc3c(=O)o2)cc1`, the values for the IC50 with MCF7, in the assay on HeLa and in the assay with HepG2 were 10.5 µg/mL (≈ 38.6 µM), 8.23 µg/mL (≈ 30.3 µM) and 22.5 µg/mL (≈ 82.8 µM), respectively.
With `Cc1ccc(C(=O)Nc2ccc(Cl)cc2C(N)=O)cc1`, the results for the IC50 in the assay with MCF7, with HeLa and in the assay with HepG2 were 5.39 µg/mL (≈ 18.7 µM), 8.23 µg/mL (≈ 28.5 µM) and 21 µg/mL (≈ 72.7 µM), respectively.
Taken in the same sequence, the figures for `CSc1nc(-c2ccc(C)cc2)nc2ccc(Cl)cc12` were 8.64 µg/mL (≈ 28.7 µM), 14.7 µg/mL (≈ 48.9 µM) and 13.3 µg/mL (≈ 44.2 µM).
Consider `Cc1ccc(-c2nc(SCC(=O)Nc3ccccc3)c3cc(Cl)ccc3n2)cc1`, for which the IC50 amounted to 4.78 µg/mL (≈ 11.4 µM) in the assay on MCF7, 11.7 µg/mL (≈ 27.9 µM) with HeLa and 14.3 µg/mL (≈ 34.1 µM) in the assay with HepG2.
Regarding `Cc1ccc(-c2nc(SCC(=O)Nc3ccc(F)cc3)c3cc(Cl)ccc3n2)cc1`, the half-maximal inhibitory concentration (IC50) with MCF7 was determined as 14.7 µg/mL (≈ 33.6 µM); in the assay with HeLa it was 10.5 µg/mL (≈ 24 µM); in the assay with HepG2, 18.4 µg/mL (≈ 42 µM).
For `Cc1ccc(-c2nc3ccc(Cl)cc3c(=S)o2)cc1` the same measures were 5.18 µg/mL (≈ 18 µM), 13.3 µg/mL (≈ 46.2 µM) and 11.1 µg/mL (≈ 38.6 µM).
For `Cc1ccc(-c2nc(NOC(=O)c3ccccc3)c3cc(Cl)ccc3n2)cc1` the same measures were 5.59 µg/mL (≈ 14.3 µM), 5.18 µg/mL (≈ 13.3 µM) and 12.1 µg/mL (≈ 31 µM).
For `C=CCSc1nc(-c2ccc(C)cc2)nc2ccc(Cl)cc12` the same measures were 8.03 µg/mL (≈ 24.6 µM), 9.66 µg/mL (≈ 29.6 µM) and 23.9 µg/mL (≈ 73.1 µM).
In the case of `Cc1ccc(-c2nc(SCc3ccccc3)c3cc(Cl)ccc3n2)cc1`, the IC50 was found to be 9.66 µg/mL (≈ 25.6 µM) in the assay on MCF7, 11.3 µg/mL (≈ 30 µM) in the assay on HeLa and 18.4 µg/mL (≈ 48.8 µM) in the assay on HepG2.
For `Cc1ccc(-c2nc(NO)c3cc(Cl)ccc3n2)cc1` the same measures were 6.81 µg/mL (≈ 23.8 µM), 12.7 µg/mL (≈ 44.4 µM) and 23.1 µg/mL (≈ 80.8 µM).
For `Cc1ccc(-c2nc(N)c3cc(Cl)ccc3n2)cc1` the same measures were 3.76 µg/mL (≈ 13.9 µM), 3.56 µg/mL (≈ 13.2 µM) and 14.5 µg/mL (≈ 53.8 µM).
Take `Cc1ccc(-c2nc3ccc(Cl)cc3c(=O)[nH]2)cc1`: the IC50 in the assay with MCF7 came out at 4.98 µg/mL (≈ 18.4 µM); in the assay with HeLa, 10.1 µg/mL (≈ 37.3 µM); in the assay with HepG2, 9.86 µg/mL (≈ 36.4 µM).
Taken in the same sequence, the figures for `Cc1ccc(-c2nc(NC(=O)c3ccccc3)c3cc(Cl)ccc3n2)cc1` were 16.1 µg/mL (≈ 43.1 µM), 16.2 µg/mL (≈ 43.3 µM) and 17.5 µg/mL (≈ 46.8 µM).
As to `Cc1ccc(-c2nc3ccc(Cl)cc3c(=S)[nH]2)cc1`, the IC50 in the assay on MCF7 amounted to 3.35 µg/mL (≈ 11.7 µM); in the assay with HeLa, 4.57 µg/mL (≈ 15.9 µM); with HepG2, 7.01 µg/mL (≈ 24.4 µM).
For `Cc1ccc(NC(=O)CSc2nc(-c3ccc(C)cc3)nc3ccc(Cl)cc23)cc1` the same measures were 5.79 µg/mL (≈ 13.3 µM), 12.3 µg/mL (≈ 28.3 µM) and 18.8 µg/mL (≈ 43.3 µM).
For `Cc1ccc(-c2nc(Sc3ncccc3[N+](=O)[O-])c3cc(Cl)ccc3n2)cc1` the same measures were 3.56 µg/mL (≈ 8.71 µM), 5.39 µg/mL (≈ 13.2 µM) and 5.59 µg/mL (≈ 13.7 µM).
Consider `Cc1ccc(-c2nc3ccc(Cl)cc3c(=O)n2N)cc1`, for which the results for the IC50 with MCF7, in the assay with HeLa and with HepG2 were 5.39 µg/mL (≈ 18.9 µM), 12.1 µg/mL (≈ 42.3 µM) and 18.4 µg/mL (≈ 64.4 µM), respectively.
